In paper PMC8253220, “Molecular design, synthesis and in vitro biological evaluation of thienopyrimidine–hydroxamic acids as chimeric kinase HDAC inhibitors: a challenging approach to combat cancer” (Journal of Enzyme Inhibition and Medicinal Chemistry, 2021):
Values joined by “and” are separate entries in the source; they are usually repeats but may differ in a detail not shown here. Identical values can stand only once.

How the values were obtained:
Assay in all cases: NCI one-dose screen
Format in all cases: cell-based, human
[1] = test system: DU-145; conditions: Prostate DU-145, 10 µM single dose
Method in brief: (§1)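 One concentration (10 μM) applied to each line of the full NCI-60 panel; percent growth compared against untreated cells.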

[2] = test system: HOP-62; conditions: NSCLC HOP-62, 10 µM single dose
Method in brief: (§2)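 Single 10 μM dose, NCI-60 panel; read-out = % growth vs untreated controls → % inhibition.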

[3] = test system: UACC-257; conditions: Melanoma UACC-257, 10 µM single dose
Method in brief: as §1

[4] = test system: KM12; conditions: Colon KM12, 10 µM single dose
Method in brief: (§3)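 At 10 μM, a single concentration, compounds were evaluated for antiproliferative effect in the NCI 60-line screen, with growth expressed relative to untreated control cells.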

[5] = test system: SR; conditions: Leukemia SR, 10 µM single dose
Method in brief: as §1

[6] = test system: SF-295; conditions: CNS SF-295, 10 µM single dose
Method in brief: as §1

[7] = test system: RPMI-8226; conditions: Leukemia RPMI-8226, 10 µM single dose
Method in brief: as §1

[8] = test system: LOX IMVI; conditions: Melanoma LOX IMVI, 10 µM single dose
Method in brief: as §1

[9] = test system: HL-60(TB); conditions: Leukemia HL-60(TB), 10 µM single dose
Method in brief: as §3

[10] = test system: SNB-19; conditions: CNS SNB-19, 10 µM single dose
Method in brief: as §2

[11] = test system: UO-31; conditions: Renal UO-31, 10 µM single dose
Method in brief: as §1

[12] = test system: PC-3; conditions: Prostate PC-3, 10 µM single dose
Method in brief: as §1

[13] = test system: MDA-MB-468; conditions: Breast MDA-MB-468, 10 µM single dose
Method in brief: as §3

[14] = test system: MCF7; conditions: Breast MCF7, 10 µM single dose
Method in brief: as §3

[15] = test system: BT-549; conditions: Breast BT-549, 10 µM single dose
Method in brief: as §1

[16] = test system: IGROV1; conditions: Ovarian IGROV1, 10 µM single dose
Method in brief: as §1

[17] = test system: NCI-H460; conditions: NSCLC NCI-H460, 10 µM single dose
Method in brief: as §1

[18] = test system: HCC-2998; conditions: Colon HCC-2998, 10 µM single dose
Method in brief: as §1

[19] = test system: SW-620; conditions: Colon SW-620, 10 µM single dose
Method in brief: as §1

[20] = test system: CAKI-1; conditions: Renal CAKI-1, 10 µM single dose
Method in brief: as §1

[21] = test system: SF-268; conditions: CNS SF-268, 10 µM single dose
Method in brief: as §3

[22] = test system: MOLT-4; conditions: Leukemia MOLT-4, 10 µM single dose
Method in brief: as §3

[23] = test system: NCI-H322M; conditions: NSCLC NCI-H322M, 10 µM single dose
Method in brief: as §1

[24] = test system: K-562; conditions: Leukemia K-562, 10 µM single dose
Method in brief: as §1

[25] = test system: HOP-92; conditions: NSCLC HOP-92, 10 µM single dose
Method in brief: as §1

[26] = test system: HS 578T; conditions: Breast HS 578T, 10 µM single dose
Method in brief: as §1

[27] = test system: SN12C; conditions: Renal SN12C, 10 µM single dose
Method in brief: as §1

[28] = test system: SK-MEL-28; conditions: Melanoma SK-MEL-28, 10 µM single dose
Method in brief: as §1

[29] = test system: NCI-H226; conditions: NSCLC NCI-H226, 10 µM single dose
Method in brief: as §1

[30] = test system: MDA-MB-435; conditions: Melanoma MDA-MB-435, 10 µM single dose
Method in brief: as §1

[31] = test system: U251; conditions: CNS U251, 10 µM single dose
Method in brief: as §1

[32] = test system: OVCAR-5; conditions: Ovarian OVCAR-5, 10 µM single dose
Method in brief: as §1

[33] = test system: T-47D; conditions: Breast T-47D, 10 µM single dose
Method in brief: as §1

[34] = test system: NCI-H23; conditions: NSCLC NCI-H23, 10 µM single dose
Method in brief: as §3

[35] = test system: COLO 205; conditions: Colon COLO 205, 10 µM single dose
Method in brief: as §1

[36] = test system: OVCAR-8; conditions: Ovarian OVCAR-8, 10 µM single dose
Method in brief: as §1

[37] = test system: SK-MEL-2; conditions: Melanoma SK-MEL-2, 10 µM single dose
Method in brief: as §2

Row | SMILES | Growth Percent [1] | Growth Percent [2] | Growth Percent [3] | Growth Percent [4] | Growth Percent [5] | Growth Percent [6] | Growth Percent [7] | Growth Percent [8] | Growth Percent [9] | Growth Percent [10] | Growth Percent [11] | Growth Percent [12] | Growth Percent [13] | Growth Percent [14] | Growth Percent [15] | Growth Percent [16] | Growth Percent [17] | Growth Percent [18] | Growth Percent [19] | Growth Percent [20] | further results
1 | COc1cccc(NC(=O)Nc2ccc(Nc3ncnc4sc(C(=O)NCCC(=O)NO)c(C)c34)cc2)c1 [Compound 11b, 1–(4-(6-((3-(hydroxyamino)-3-oxopropyl)carbamoyl)-5-methylthieno[2,3-d]pyrimidin-4-ylamino)phenyl)-3–(3-methoxyphenyl)urea] | 102.0% and 102.08% | 103.2% and 103.23% | 99.1% and 99.15% | 99.5% and 99.57% | 112.2% and 112.27% | 100.0% and 100.08% | 110.5% | 91.6% and 91.65% | 103.9% and 103.99% | 98.1% | 83.4% and 83.44% | 102.0% and 102.03% | 83.0% and 83.04% | 90.5% and 90.58% | 96.1% and 96.14% | 104.1% and 104.14% | 101.9% and 101.91% | 103.8% and 103.81% | 103.0% and 103.05% | 95.6% and 95.62% | Growth Percent [21]: 94.3% and 94.39%; Growth Percent [22]: 107.2% and 107.22%; Growth Percent [23]: 100.7% and 100.74%; Growth Percent [24]: 115.1% and 115.17%; Growth Percent [25]: 119.1% and 119.18%; Growth Percent [26]: 100.7%; Growth Percent [27]: 105.1% and 105.11%; Growth Percent [28]: 105.3%; Growth Percent [29]: 87.7% and 87.79%; Growth Percent [30]: 100.8% and 100.85%; Growth Percent [31]: 97.1% and 97.12%; Growth Percent [32]: 101.9% and 101.91%; Growth Percent [33]: 100.1%; Growth Percent [34]: 96.6% and 96.67%; Growth Percent [35]: 113.1% and 113.15%; Growth Percent [36]: 99.2% and 99.26%; Growth Percent [37]: 116.4% and 116.43%
2 | Cc1c(C(=O)NCCC(=O)NO)sc2ncnc(Nc3ccc(NC(=O)Nc4cccc(C(F)(F)F)c4)cc3)c12 [Compound 11c, 1–(4-(6-((3-(hydroxyamino)-3-oxopropyl)carbamoyl)-5-methylthieno[2,3-d]pyrimidin-4-ylamino)phenyl)-3–(3-(trifluoromethyl)phenyl)urea] | 105.3% and 105.34% | 101.7% | 108.3% and 108.33% | 100.1% and 100.15% | 101.0% and 101.07% | 91.8% and 91.82% | 102.2% and 102.26% | 94.5% and 94.53% | 105.0% and 105.04% | 93.6% and 93.62% | 87.0% and 87.09% | 100.2% and 100.24% | 97.1% and 97.16% | 89.2% and 89.23% | 137.1% and 137.18% | 102.2% and 102.29% | 99.4% and 99.41% | 111.5% and 111.56% | 104.3% and 104.35% | 99.3% and 99.31% | Growth Percent [21]: 93.3% and 93.37%; Growth Percent [22]: 105.7% and 105.79%; Growth Percent [23]: 103.7% and 103.74%; Growth Percent [24]: 103.6% and 103.67%; Growth Percent [25]: 115.4%; Growth Percent [26]: 93.51%; Growth Percent [27]: 100.0% and 100.06%; Growth Percent [28]: 109.7% and 109.72%; Growth Percent [29]: 97.9%; Growth Percent [30]: 103.1% and 103.18%; Growth Percent [31]: 80.2% and 80.22%; Growth Percent [32]: 104.4% and 104.48%; Growth Percent [33]: 101.4% and 101.45%; Growth Percent [34]: 100.0% and 100.01%; Growth Percent [35]: 112.9%; Growth Percent [36]: 102.2% and 102.23%; Growth Percent [37]: 108.7% and 108.73%
3 | Cc1c(C(=O)NCCCC(=O)NO)sc2ncnc(Nc3ccc(NC(=O)Nc4ccccc4)cc3)c12 [Compound 12a, 1–(4-(6-((4-(hydroxyamino)-4-oxobutyl)carbamoyl)-5-methylthieno[2,3-d]pyrimidin-4-ylamino)phenyl)-3-phenylurea] | 108.5% and 108.51% | 100.0% and 100.08% | 104.2% and 104.23% | 99.6% and 99.61% | 105.3% and 105.35% | 102.0% and 102.06% | 110.5% and 110.53% | 93.57% | 101.4% and 101.44% | 97.1% and 97.12% | 75.3% and 75.33% | 98.9% and 98.99% | 100.0% and 100.06% | 92.4% and 92.41% | 105.0% and 105.06% | 99.0% and 99.07% | 102.6% and 102.61% | 102.1% and 102.15% | 103.3% and 103.39% | 92.8% and 92.88% | Growth Percent [21]: 92.5% and 92.51%; Growth Percent [22]: 102.6% and 102.68%; Growth Percent [23]: 99.7% and 99.76%; Growth Percent [24]: 97.8% and 97.83%; Growth Percent [25]: 121.7% and 121.76%; Growth Percent [26]: 106.3% and 106.34%; Growth Percent [27]: 99.0% and 99.09%; Growth Percent [28]: 109.4% and 109.43%; Growth Percent [29]: 93.3% and 93.35%; Growth Percent [30]: 101.8% and 101.82%; Growth Percent [31]: 92.3% and 92.32%; Growth Percent [32]: 105.1% and 105.14%; Growth Percent [33]: 103.9% and 103.98%; Growth Percent [34]: 89.2% and 89.25%; Growth Percent [35]: 111.9% and 111.95%; Growth Percent [36]: 104.6% and 104.68%; Growth Percent [37]: 113.3% and 113.39%
